Source: US20120219543A1, “METHODS AND PHARMACEUTICAL COMPOSITIONS FOR THE TREATMENT OF DISORDERS OF GLUCOSE HOMEOSTASIS” (priority 2009, published 2012)
“Also recorded” adds a separate entry of the source.

Assays:
[1] = test system: mRNA transcripts (insulin, MafA, ZnT-8, Ngn3, NeuroD1, Pou3F4, somatostatin) in E13.5 Rat pancreases; test: Real-time PCR of mRNA transcripts in cultured E13.5 rat pancreases; assay type: cell-based; conditions: for insulin mRNA level increase / ZnT-8 and MafA expression: Glib 5D
Source text: (§1) Pregnant Wistar rats were purchased from the Janvier Breeding centre (CERJ, LeGenet, France). Cftr-knockout (Cftr−/−) and wild-type (Cftr+/+) embryos were obtained from the progeny of heterozygous-heterozygous for the S489X mutation (Snouwaert et al. 1992) matings (CDTA, Orléans, France). The first day postcoitum was taken as embryonic day (E)0.5. Pregnant rats were killed with CO2 asphyxiation and pregnant mice by cervical dislocation according to guidelines issued by the French Animal Care Committee. Dorsal pancreatic buds from E13.5 rat and E12.5 mice embryos were dissected as described previously (Miralles et al. 1998). Briefly, the stomach, pancreas and a small portion of the intestine were dissected together, and then the pancreas primordium was isolated.
(§2) Dorsal pancreatic rudiments were cultured on 0.45 μm filters (Millipore) at the air-medium interface in a 35 mm sterile Petri dishes containing 2 ml RPMI-1640 medium (Invitrogen) supplemented with 100 U/ml penicillin, 100 μg/ml streptomycin, 10 mmol/L HEPES, 2 mmol/L L-glutamine, 1× non-essential aminoacids (Invitrogen) and 10% heat-inactivated fetal calf serum (HyClone, Logan, Utah, USA). Glibenclamide (MP Biomedical), and Glycine hydrazide (GlyH-101)(Calbiochem), used at the indicated concentrations, were first dissolved as concentrated solutions in dimethylsulfoxide DMSO (Sigma), the final concentration of DMSO in the culture medium was less than 0.5% (vol/vol). Glibenclamide and GlyH-101 were added to the media daily. The cultures were incubated at 37° C. in a humidified atmosphere composed of 95% air and 5% CO2. At the end of the culture period, the pancreases were photographied, and fixed as described below or harvested for RNA extraction.
Total RNA was isolated from pools of at least three pancreases using the Qiagen RNeasy Microkit (Qiagen, Courtaboeuf, France) and reverse transcribed using Superscript reagents (Invitrogen). Real-time PCR was performed with the 7300 Fast real-time PCR system (Applied Biosystem) using either Taqman universal PCR master mix or SYBR green PCR master mix (Applied Bio system) with primers and labelled probes specific for each gene. Peptidylpropyl isomerase A/Cyclophilin A was used as endogenous control and E16.5 pancreas cDNA as calibrator sample. The data were analyzed by comparative cycle threshold method (Livak and Schmittgen 2001) and presented as the fold change in gene expression. At least three pools of explants were analysed by condition.

[2] = test system: E13.5 Rat embryonic pancreases (PDX-1+ progenitors, insulin-expressing cells); test: BrdU incorporation (proliferation) in cultured E13.5 rat pancreases; assay type: cell-based; conditions: 10 μM GlyH-101, D5, BrdU during last hour
Experimental: as §2, with “Glibenclamide and GlyH-101 were added to the media daily. The cultures were incubated at 37° C. in a humidified atmosphere composed of 95% air and 5% CO2. At the end of the culture period, the pancreases were photographied, and fixed as described below or harvested for RNA extraction.” left out
To quantify the surface area of insulin, glucagon, PCSK1/3, CPA and amylase-expressing cells, all sections of each pancreatic rudiment were digitized. […] The surface of insulin, glucagon, PCSK1/3, CPA, amylase and Hoechst stainings were quantified using Iplab (Scanalytics). […] To measure proliferation of the early progenitors expressing PDX1, we counted the frequency of BrdU positive progenitors expressing PDX1 among 3000 early progenitors expressing PDX1 per rudiment. To quantify the absolute number of NGN3-expressing cells, pancreatic rudiments were sectioned and all sections were stained with an anti-NGN3 antibody. Positive cells were counted on all sections of each pancreatic rudiment. […]

[3] = test system: E12.5 pancreases from knockout (CFTR-/-) mice; test: Organ culture of E12.5 pancreases from Cftr knockout (Cftr-/-) mice, insulin-positive cell area; assay type: cell-based; conditions: 10 μM GlyH-101, 6 days of culture
Experimental: (§3) FIG. 1: Effects of GlyH-H101 on endocrine cell development. Quantification by real-time PCR of insulin (A) and MafA (B) mRNA transcripts in E 13.5 Rat pancreases before (D0) and after 1, 3, 5 and 7 days of culture (D1, D3, D5 and D7 respectively) with or without 10 μM GlyH-101. Each data point represents the mean±sem of at least four independent experiments ***, p<0.001. (C) Immunohistological analysis of E13.5 Rat pancreases cultured 5 days in the presence or in absence of 10 μM GlyH-101. Insulin and amylase staining were respectively in red and green. Nuclei were stained in blue with Hoechst. Scale bar: 50 μm (D). β cell differentiation was evaluated by quantification of the absolute surface area occupied by insulin staining in E 13.5 Rat pancreases after 5 days of culture in presence or in absence of 10 μM GlyH-101. Values are means±sem of at least three independent experiments *, p<0.05; (E) Quantification by real-time PCR of Ngn3 transcripts in E13.5 Rat pancreases before (D0) and after 1, 3, 5 and 7 days of culture (D0, D1, D3, D5 and D7 respectively) with or without 10 μM GlyH-101. […] (G) Quantification of the number of NGN3 positive-cells in E13.5 Rat pancreases cultured for 5 days in presence or in absence of 10 μM GlyH-101. […]
(§4) To quantify the surface area of insulin, glucagon, PCSK1/3, CPA and amylase-expressing cells, all sections of each pancreatic rudiment were digitized. […]

[4] = test system: E13.5 Rat embryonic pancreases; test: Organ culture of E13.5 rat embryonic pancreases: morphology, immunohistochemistry and surface/cell quantification; assay type: cell-based
Source text: as §1, §2
The pancreatic rudiments were fixed in 10% formalin, pre-embedded in agarose gel (4% of type VII low-gelling-temperature agarose [Sigma] in H2O) and embedded in paraffin. Immunohistochemistry was performed on 4-μm paraffin sections as previously described) (Duvillie et al. 2006). The primary antibodies were mouse anti insulin (1/2000; Sigma), rabbit anti-glucagon (1/1000; Diasorin), rabbit anti-amylase (1/300; Sigma), rabbit anti-carboxypeptidase A (CPA) (1/600; Biogenesis, Kidlington, Oxford, UK), rabbit anti-PDX1 (1/1000) (Duvillie et al. 2006) mouse anti-BrdU (1/2; Amersham Biosciences, Buckingham, UK), rabbit anti-Proprotein Convertase Subtilisin/Kexin 1/3 (PCSK1/3), rabbit anti-Ngn3 (1/100, (Guillemain et al. 2007) The fluorescent secondary antibodies were fluorescein anti-rabbit antibody (1/200; Jackson Immunoresearch, Baltimore, Md., USA), fluorescein goat anti-rabbit Alexa Fluor 488 (1/400; Invitrogen) and Texas red anti-mouse antibody (1/200; Jackson). Nuclei were stained in blue with Hoechst 33342 (0.3 μg/ml; Invitrogen). Ngn3 detection was performed as previously described (Guillemain et al. 2007) using the Vectastain elite ABC kit (Vector laboratories).
To quantify the surface area of insulin, glucagon, PCSK1/3, CPA and amylase-expressing cells, all sections of each pancreatic rudiment were digitized. Alternate sections were examined to avoid counting the same cell twice. The surface of insulin, glucagon, PCSK1/3, CPA, amylase and Hoechst stainings were quantified using Iplab (Scanalytics). The stained areas were summed to obtain the total surface area per rudiment in mm^2. To measure proliferation of the early progenitors expressing PDX1, we counted the frequency of BrdU positive progenitors expressing PDX1 among 3000 early progenitors expressing PDX1 per rudiment. To quantify the absolute number of NGN3-expressing cells, pancreatic rudiments were sectioned and all sections were stained with an anti-NGN3 antibody. Positive cells were counted on all sections of each pancreatic rudiment. A minimum of three rudiments was analyzed per condition.

[5] = test system: beta cell mass of embryos of pregnant mice; test: In vivo administration to pregnant mice, insulin staining surface of embryonic pancreas; conditions: E12.5 pregnant mice, 10 mg/kg/day for 5 days, intraperitoneal, embryos harvested at E18.5
Experimental: To evaluate its effects in vivo, GlyH 101 was administrated to a E12.5 pregnant mice for 5 days at 10 mg/kg/day (according to Yang et al. 2008) in a saline DMSO solution ([…]) by intraperitoneal injection two times a day. The embryos were harvested at E18.5 and the pancreas fixed for histological immunostaining. The surface of insulin staining was quantified and normalized to the whole pancreatic tissue.

[6] = test system: E12.5 pancreases from WT (CFTR+/+) mice; test: Organ culture of E12.5 pancreases from WT (Cftr+/+) mice, insulin-positive cell area; assay type: cell-based; conditions: 10 μM GlyH-101, 6 days of culture
Experimental: as §3, §4

CFTR channel = CFTR channel (Homo sapiens, UniProt P13569); conditions: open-channel block mechanism; cited from earlier work
[7] = test system: human liver cell line HepG2; conditions: HepG2 cultured with 100 μM glibenclamide; cited from earlier work
[8] = 100 μM, 7 days of culture, vs absence

Sequence of CFTR channel (P13569 whole entry): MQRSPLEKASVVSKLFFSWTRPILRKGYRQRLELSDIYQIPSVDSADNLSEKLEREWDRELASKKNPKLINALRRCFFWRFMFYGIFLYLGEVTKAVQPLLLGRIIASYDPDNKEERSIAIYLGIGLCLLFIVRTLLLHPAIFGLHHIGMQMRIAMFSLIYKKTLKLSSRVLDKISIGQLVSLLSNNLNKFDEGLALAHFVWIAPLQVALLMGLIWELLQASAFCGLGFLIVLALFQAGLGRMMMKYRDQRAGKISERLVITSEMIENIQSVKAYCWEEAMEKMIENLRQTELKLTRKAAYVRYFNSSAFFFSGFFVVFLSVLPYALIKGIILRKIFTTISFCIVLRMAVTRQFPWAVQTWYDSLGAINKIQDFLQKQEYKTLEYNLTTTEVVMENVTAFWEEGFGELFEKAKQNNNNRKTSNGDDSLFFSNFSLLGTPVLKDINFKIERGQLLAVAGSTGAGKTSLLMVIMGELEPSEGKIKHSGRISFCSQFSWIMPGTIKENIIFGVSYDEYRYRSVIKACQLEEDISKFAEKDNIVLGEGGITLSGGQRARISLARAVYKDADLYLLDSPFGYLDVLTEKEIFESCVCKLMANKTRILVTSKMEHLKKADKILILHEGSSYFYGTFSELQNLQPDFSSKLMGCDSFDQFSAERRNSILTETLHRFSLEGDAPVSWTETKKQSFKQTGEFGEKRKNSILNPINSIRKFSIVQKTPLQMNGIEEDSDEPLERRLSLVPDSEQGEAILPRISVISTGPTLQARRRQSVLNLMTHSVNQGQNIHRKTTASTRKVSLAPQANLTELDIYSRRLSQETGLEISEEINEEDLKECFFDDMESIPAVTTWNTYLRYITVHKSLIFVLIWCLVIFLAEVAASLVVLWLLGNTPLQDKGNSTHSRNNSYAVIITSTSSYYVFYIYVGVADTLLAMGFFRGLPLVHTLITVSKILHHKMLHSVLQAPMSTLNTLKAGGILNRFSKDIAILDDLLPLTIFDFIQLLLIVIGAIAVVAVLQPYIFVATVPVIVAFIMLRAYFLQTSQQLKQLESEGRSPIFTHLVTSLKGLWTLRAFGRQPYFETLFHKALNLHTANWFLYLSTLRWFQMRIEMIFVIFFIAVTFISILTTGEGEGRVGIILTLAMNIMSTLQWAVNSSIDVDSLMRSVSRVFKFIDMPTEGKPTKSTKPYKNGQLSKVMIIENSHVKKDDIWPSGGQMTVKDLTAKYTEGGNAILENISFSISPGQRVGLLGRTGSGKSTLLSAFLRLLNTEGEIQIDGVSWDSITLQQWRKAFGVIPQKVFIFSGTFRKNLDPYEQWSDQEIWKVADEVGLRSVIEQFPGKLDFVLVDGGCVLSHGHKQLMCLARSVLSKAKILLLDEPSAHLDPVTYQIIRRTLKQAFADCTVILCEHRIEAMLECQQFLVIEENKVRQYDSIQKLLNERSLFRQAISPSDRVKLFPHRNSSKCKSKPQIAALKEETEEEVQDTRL

Structure (SMILES): O=C(CNc1ccc2ccccc2c1)NN=Cc1cc(Br)c(O)c(Br)c1O [GlyH-101, N-2-napthalenyl-[(3,5-dibromo-2,4-dihydroxyphenyl)methylene]glycine hvdrazide]
- increase of MafA mRNA transcripts ([1]; 10 μM GlyH-101, D3): more than twofold
- increase of insulin mRNA transcripts ([1]; 10 μM GlyH-101, D3): more than twofold
- increase in Ngn3 expression (real-time PCR) ([1]; 10 μM GlyH-101, D5): 8 fold
- insulin expression ([1]; 10 μM GlyH-101, after 5 and 7 days of culture): sixfold
- Ngn3 expression (real-time PCR) ([1]; 10 μM GlyH-101, from D1): strong increase
- proliferative rate of insulin-expressing cells (BrdU) [2]: No differences
- insulin+ cell area [3]: unable to modify
- exocrine differentiation ([4]; 10 μM GlyH-101): did not observe any effects
- area occupied by insulin-positive cells ([4]; 10 μM GlyH-101, 5 days of culture): dramatic increase
- pool/number of Ngn3+ pancreatic endocrine progenitor cells ([4]; 10 μM GlyH-101, D5): increased number; also recorded: amplified and maintained
- beta cell mass (insulin staining surface normalized to whole pancreatic tissue) [5]: increased
- insulin+ cell area [6]: increase

Structure (SMILES): COc1ccc(Cl)cc1C(=O)NCCc1ccc(S(=O)(=O)NC(=O)NC2CCCCC2)cc1 [glibenclamide]
- NeuroD1 expression ([1]; 100 μM, D5): significantly increased; also recorded: twofold
- NeuroD1 expression ([1]; 100 μM, D7): enhanced
- Pou3F4/Brn4 mRNA level ([1]; 100 μM, D7): significant increase
- NeuroD1 mRNA levels ([1]; 100 μM, after 1 and 3 days of culture, vs absence): similar
- Ngn3 expression increase ([1]; 100 μM, after 5 days of culture, p<0.001): sevenfold; also recorded: seven
- increase in somatostatin expression ([1]; 100 μM, after 7 days of culture): twofold
- Ngn3 mRNA level ([1]; 100 μM, after 7 days of culture, p<0.001): dramatically higher; also recorded: threefold
- insulin expression (real-time PCR) ([1]; 100 μM, as early as D3): strongly reduced
- Ngn3 expression ([1]; 100 μM, day 1 and 3, vs absence): similar
- expression of β-cell markers ZnT-8 and MafA ([1]; 100 μM, over the 7 days of culture): did not affect
- reversal of low insulin content and reduced insulin gene transcription ([1]; 2 days after glibenclamide removal): completely reverted
- insulin mRNA level increase ([1]; D9, vs without): threefold
- insulin mRNA level increase ([1]; D11, vs without): twofold
- insulin mRNA level increase ([1]; D14, vs without): threefold
- ZnT-8 and MafA expression ([1]; after 9, 11 and 14 days of culture, p<0.01): dramatic increase
- ZnT-8 and MafA expression ([1]; after 7 days of culture): similar
- insulin mRNA level ([1]; glibenclamide only first 5 days of culture (Glib 5D), D7, vs without): identical
- CFTR channel inhibition (CFTR channel): inhibits CFTR channel in a dose-dependant manner
- toxicity and apoptosis [7]: no toxicity nor apoptosis
- pancreatic growth ([4]; 10 nM, 100 nM, 1, 10 or 100 μM glibenclamide vs control, 7 days of culture): similar
- number of NGN3+ cells (immunohistochemistry) ([4]; 100 μM, 5 days of culture, vs absence): threefold
- increase of the number of glucagon-expressing cells ([4]; 100 μM, 7 days of culture): 3.5 fold
- decrease of surface area occupied by the insulin-cell population [4, 8]: 70%
- surface area occupied by amylase- and carboxypeptidaseA-positive cells [4, 8]: No differences
- surface area occupied by PCSK1/3 staining in PDX-1+ cells ([4]; 100 μM, 7 days of culture, vs without): similar
- exocrine (acinar and ductal) development ([4]; 100 μM, 7 days, amylase, carboxypeptidaseA, SPP1 and CFTR markers): did not to modify
- apoptosis (Hoechst staining of the nuclei) ([4]; 10 and 100 μM, 7 days of culture, vs without): no difference
- overall size of pancreases (quantitative analysis) ([4]; 10 or 100 μM, 7 days of culture): lack of glibenclamide toxicity
- insulin-staining area (insulin-positive cells) ([4]; Glib 5D-treated pancreas): significant increase
- insulin-expressing cells observed ([4]; Glib-5D pancreases at D9, D11 or D14): A large number
- insulin-containing cells detected ([4]; glibenclamide present throughout 9, 11 or 14 days of culture): less
- pancreas development ([4]; up to 1 micromolar): did not affect
